According to PubChem BioAssay (NCI):
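Where inhibition never reached the appropriate level, the endpoint shown equals the highest concentration tested. Otherwise, values were interpolated linearly from a five-concentration, 48-hour dose response in 96-well plates. GI50 = concentration required for 50% inhibition of growth. The concentration for full growth arrest is given as TGI.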

Assays:
Assay in all cases: DTP human tumour cell line panel, 48 h
HS 578T breast = system: HS 578T breast
HCT-116 colon = system: HCT-116 colon
NCI-H522 lung = system: NCI-H522 lung
MDA-MB-231 breast = system: MDA-MB-231 breast
UACC-62 melanoma = system: UACC-62 melanoma
U251 CNS = system: U251 CNS
SK-MEL-5 melanoma = system: SK-MEL-5 melanoma
SF-295 CNS = system: SF-295 CNS
HCT-15 colon = system: HCT-15 colon
ACHN renal = system: ACHN renal
SF-268 CNS = system: SF-268 CNS
HOP-62 NSCLC = system: HOP-62 NSCLC
CAKI-1 renal = system: CAKI-1 renal
CCRF-CEM leukemia = system: CCRF-CEM leukemia
HCC-2998 colon = system: HCC-2998 colon
OVCAR-3 ovarian = system: OVCAR-3 ovarian
TK-10 renal = system: TK-10 renal
SK-OV-3 ovarian = system: SK-OV-3 ovarian
OVCAR-4 ovarian = system: OVCAR-4 ovarian
NCI/ADR-RES ovarian = system: NCI/ADR-RES ovarian
NCI-H460 lung = system: NCI-H460 lung
T-47D breast = system: T-47D breast
LOX IMVI melanoma = system: LOX IMVI melanoma
SF-539 CNS = system: SF-539 CNS
MCF7 breast = system: MCF7 breast
UO-31 renal = system: UO-31 renal
OVCAR-5 ovarian = system: OVCAR-5 ovarian
COLO 205 colon = system: COLO 205 colon
PC-3 prostate = system: PC-3 prostate
OVCAR-8 ovarian = system: OVCAR-8 ovarian
UACC-257 melanoma = system: UACC-257 melanoma
IGROV1 ovarian = system: IGROV1 ovarian
DU-145 prostate = system: DU-145 prostate
A498 renal = system: A498 renal
NCI-H226 lung = system: NCI-H226 lung
HOP-92 NSCLC = system: HOP-92 NSCLC
MDA-MB-435 = system: MDA-MB-435
BT-549 breast = system: BT-549 breast
786-0 renal = system: 786-0 renal
HL-60(TB) leukemia = system: HL-60(TB) leukemia
MALME-3M melanoma = system: MALME-3M melanoma
NCI-H23 lung = system: NCI-H23 lung
EKVX NSCLC = system: EKVX NSCLC
SK-MEL-28 melanoma = system: SK-MEL-28 melanoma
K-562 leukemia = system: K-562 leukemia
SN12C renal = system: SN12C renal
MDA-MB-468 breast = system: MDA-MB-468 breast
SK-MEL-2 melanoma = system: SK-MEL-2 melanoma
SNB-19 CNS = system: SNB-19 CNS
SW-620 colon = system: SW-620 colon
HT29 colon = system: HT29 colon
RPMI-8226 leukemia = system: RPMI-8226 leukemia
MOLT-4 leukemia = system: MOLT-4 leukemia
M14 melanoma = system: M14 melanoma
SNB-75 CNS = system: SNB-75 CNS
RXF 393 renal = system: RXF 393 renal
KM12 colon = system: KM12 colon
A549 NSCLC = system: A549 NSCLC

## COc1ccc(-c2cc(C(=O)N=Nc3c(O)[nH]c4ccc(Br)cc34)c3ccccc3n2)cc1
HS 578T breast
  GI50: 14.3 µM
  TGI: 55.1 µM
HCT-116 colon
  GI50: 5.55 µM
  TGI: 66.4 µM
NCI-H522 lung
  GI50: 16.9 µM
  TGI: 46.3 µM
MDA-MB-231 breast
  GI50: 6.94 µM
  TGI: 22.9 µM
UACC-62 melanoma
  GI50: 15.6 µM
  TGI: 30.2 µM
U251 CNS
  GI50: 3.4 µM
  TGI: > 100 µM
SK-MEL-5 melanoma
  GI50: 15.8 µM
  TGI: 31.8 µM
SF-295 CNS
  GI50: 13.7 µM
  TGI: 27.2 µM
HCT-15 colon
  GI50: 3.23 µM
  TGI: 11.9 µM
ACHN renal
  GI50: 11.1 µM
  TGI: 24.1 µM
SF-268 CNS
  GI50: 17.9 µM
  TGI: 48.4 µM
HOP-62 NSCLC
  GI50: 16.5 µM
  TGI: 36.7 µM
CAKI-1 renal
  GI50: 13.9 µM
  TGI: 40.1 µM
CCRF-CEM leukemia
  GI50: 3.09 µM
  TGI: > 100 µM
HCC-2998 colon
  GI50: 12.9 µM
  TGI: 26.4 µM
OVCAR-3 ovarian
  GI50: 12.3 µM
  TGI: 36.1 µM
TK-10 renal
  GI50: 22 µM
  TGI: 41.2 µM
SK-OV-3 ovarian
  GI50: 16.1 µM
  TGI: 34.8 µM
OVCAR-4 ovarian
  GI50: 17.1 µM
  TGI: 72.2 µM
NCI/ADR-RES ovarian
  GI50: 8.75 µM
  TGI: 33.9 µM
NCI-H460 lung
  GI50: 3.7 µM
  TGI: 16.1 µM
T-47D breast
  GI50: 19.8 µM
  TGI: 65.8 µM
LOX IMVI melanoma
  GI50: 3.33 µM
  TGI: 12.3 µM
SF-539 CNS
  GI50: 15.6 µM
  TGI: 29.7 µM
MCF7 breast
  GI50: 6.26 µM
  TGI: 26.5 µM
UO-31 renal
  GI50: 12.5 µM
  TGI: 25 µM
OVCAR-5 ovarian
  GI50: 14.3 µM
  TGI: 27.6 µM
COLO 205 colon
  GI50: 16.1 µM
  TGI: 47.5 µM
PC-3 prostate
  GI50: 8.46 µM
  TGI: > 100 µM
OVCAR-8 ovarian
  GI50: 12.3 µM
  TGI: 31.4 µM
UACC-257 melanoma
  GI50: 16.6 µM
  TGI: 37.7 µM
IGROV1 ovarian
  GI50: 11.2 µM
  TGI: 25.9 µM
DU-145 prostate
  GI50: 10.9 µM
  TGI: 30.1 µM
A498 renal
  GI50: 20.8 µM
  TGI: 36.8 µM
NCI-H226 lung
  GI50: 14.2 µM
  TGI: 45.7 µM
HOP-92 NSCLC
  GI50: 13.3 µM
  TGI: 40.1 µM
MDA-MB-435
  GI50: 13.3 µM
  TGI: 43.8 µM
BT-549 breast
  GI50: 27.8 µM
  TGI: 48.5 µM
786-0 renal
  GI50: 19.4 µM
  TGI: 47.8 µM
HL-60(TB) leukemia
  GI50: 24.7 µM
  TGI: > 100 µM
MALME-3M melanoma
  GI50: 15.6 µM
  TGI: 34.9 µM
NCI-H23 lung
  GI50: 3.09 µM
  TGI: 13.3 µM
EKVX NSCLC
  GI50: 10.5 µM
  TGI: 22.4 µM
SK-MEL-28 melanoma
  GI50: 14.5 µM
  TGI: 28.1 µM
K-562 leukemia
  GI50: 4.28 µM
  TGI: > 100 µM
SN12C renal
  GI50: 14.9 µM
  TGI: 30.3 µM
MDA-MB-468 breast
  GI50: 10.4 µM
  TGI: 25.3 µM
SK-MEL-2 melanoma
  GI50: 18.2 µM
  TGI: 33.9 µM
SNB-19 CNS
  GI50: 15.5 µM
  TGI: 28.9 µM
SW-620 colon
  GI50: 2.28 µM
  TGI: 6.83 µM
HT29 colon
  GI50: 3.62 µM
  TGI: 14.5 µM
RPMI-8226 leukemia
  GI50: 6.37 µM
  TGI: > 100 µM
MOLT-4 leukemia
  GI50: 5.08 µM
  TGI: > 100 µM
M14 melanoma
  GI50: 8.54 µM
  TGI: 44.4 µM
SNB-75 CNS
  GI50: 14.1 µM
  TGI: 37.9 µM
RXF 393 renal
  GI50: 10 µM
  TGI: 22.6 µM
KM12 colon
  GI50: 19 µM
  TGI: 85.7 µM
A549 NSCLC
  GI50: 9.06 µM
  TGI: 51.6 µM
